# Literature values in PubChem BioAssay AID1259409 (Chemical Carcinogenesis Research Information System (CCRIS), 2018).
# Test system: rodent chemically induced tumor inhibition, incidence and multiplicity
# Test: CCRIS tumor inhibitor studies
# Settings: for tumour outcome (control, treated, inhibition, significance): Promoter: NONE USED
smiles,measurement,setting,value
O=[Se](O)O,"tumour outcome (control, treated, inhibition, significance)","Carcinogen: N,N-DIETHYLNITROSAMINE, 55-18-5, Dose [Inhibitor]: 0.1 MG 5/WK STARTING 10-15 D BEFORE CARCINOGEN TREATMENT AND CONTINUING FOR DURATION OF STUDY (STUDY DURATION: 26 WK), Route [Inhibitor]: INTRAPERITONEAL, Species: RAT, Strain/Sex: BDIV AND WISTAR/MALE, Target Tissue: Type of Lesion: LIVER: TUMOR, Dose [Carcinogen]: 100 MG/L IN DRINKING WATER DAILY FOR 5 MO","18/19 (95%), 14/17 (82%), 14%, not calculated"
same,"tumour outcome (control, treated, inhibition, significance)","Carcinogen: N,N-DIETHYLNITROSAMINE, 55-18-5, Dose [Inhibitor]: 1 MG/L IN DRINKING WATER DAILY STARTING 10-15 D BEFORE CARCINOGEN TREATMENT AND CONTINUING FOR DURATION OF STUDY (STUDY, Route [Inhibitor]: ORAL, Species: RAT, Strain/Sex: BDIV AND WISTAR/MALE, Target Tissue: Type of Lesion: LIVER: TUMOR, Dose [Carcinogen]: 80 MG/KG BW IN 0.2 ML 0.9% SALINE 1/WK FOR 10 WK","17/20 (85%), 15/20 (75%), 12%, not calculated"
same,"tumour outcome (control, treated, inhibition, significance)","Carcinogen: N,N-DIETHYLNITROSAMINE, 55-18-5, Dose [Inhibitor]: 5 MG/L IN DRINKING WATER DAILY STARTING 10-15 D BEFORE CARCINOGEN TREATMENT AND CONTINUING FOR DURATION OF STUDY (STUDY, Route [Inhibitor]: ORAL, Species: RAT, Strain/Sex: BDIV AND WISTAR/MALE, Target Tissue: Type of Lesion: LIVER: TUMOR, Dose [Carcinogen]: 80 MG/KG BW IN 0.2 ML 0.9% SALINE 1/WK FOR 10 WK","15/16 (94%), 17/18 (94%), 0%, not calculated"
same,"tumour outcome (control, treated, inhibition, significance)","Carcinogen: N,N-DIETHYLNITROSAMINE, 55-18-5, Dose [Inhibitor]: 10 MG/L IN DRINKING WATER DAILY STARTING 10-15 D BEFORE CARCINOGEN TREATMENT AND CONTINUING FOR DURATION OF STUDY (STUDY, Route [Inhibitor]: ORAL, Species: RAT, Strain/Sex: BDIV AND WISTAR/MALE, Target Tissue: Type of Lesion: LIVER: TUMOR, Dose [Carcinogen]: 80 MG/KG BW IN 0.2 ML 0.9% SALINE 1/WK FOR 10 WK","15/16 (94%), 9/13 (69%), 27%, not calculated"
same,"tumour outcome (control, treated, inhibition, significance)","Carcinogen: N,N-DIETHYLNITROSAMINE, 55-18-5, Dose [Inhibitor]: 10 MG/L IN DRINKING WATER DAILY STARTING 10-15 D BEFORE CARCINOGEN TREATMENT AND CONTINUING FOR DURATION OF STUDY (STUDY, Route [Inhibitor]: ORAL, Species: RAT, Strain/Sex: BDIV AND WISTAR/MALE, Target Tissue: Type of Lesion: LIVER: TUMOR, Dose [Carcinogen]: 100 MG/L IN DRINKING WATER DAILY FOR 5 MO","18/19 (95%), 15/16 (94%), 1%, not calculated"
same,"tumour outcome (control, treated, inhibition, significance)","Carcinogen: N-METHYL-N'-NITRO-N-NITROSOGUANIDINE, 70-25-7, Dose [Inhibitor]: 10 MG/L IN DRINKING WATER DAILY STARTING 15 D BEFORE CARCINOGEN TREATMENT AND CONTINUING FOR DURATION OF STUDY (STUDY DU, Route [Inhibitor]: ORAL, Species: RAT, Strain/Sex: BDIV AND WISTAR/MALE, Target Tissue: Type of Lesion: STOMACH: TUMORS, Dose [Carcinogen]: 250 MG/KG BW PULSED DOSE IN 2 ML CORN OIL ONCE","18/25 (72%), 12/35 (75%), -4%, not calculated"
same,outcome,"Carcinogen: N-METHYL-N-NITRO-N'-NITROSO-GUANIDINE [70-25-7], Dose [Inhibitor]: 0, 2, 4 MG/L FOR 1 WK PRIOR TO CARCINOGEN (STUDY DURATION: 43 WKS), Dose [Inhibitor]: 0, 2, 4 MG/L FOR 1 WK PRIOR TO CARCINOGEN (STUDY DURATION: 43 WKS), Route [Inhibitor]: DRINKING WATER, Species: RAT, Strain/Sex: WISTAR/MALE, Target Tissue: Type of Lesion: LEIOMYOMA, Dose [Carcinogen]: 20 MG/KG BW DAILY FOR 10 D","23%; 47%, -104%; 43%, -87%"
same,"tumour outcome (control, treated, inhibition, significance)","Carcinogen: N-METHYL-N-NITROSOUREA, 684-9-35, Dose [Inhibitor]: 4 PPM IN DRINKING WATER DAILY FOR 10 MO STARTING SIMULTANEOUSLY WITH CARCINOGEN TREATMENT (STUDY DURATION: 10 MO), Route [Inhibitor]: ORAL, Species: RAT, Strain/Sex: WE/MALE, Target Tissue: Type of Lesion: BRAIN AND SPINAL CORD: NEOPLASM, Dose [Carcinogen]: 20 MG/KG BW ONCE EVERY 4 WK FOR 40 WK","6/15 (40%), 9/16 (56%), -40%, not significant"
same,"tumour outcome (control, treated, inhibition, significance)","Carcinogen: N-METHYL-N-NITROSOUREA, 684-9-35, Dose [Inhibitor]: 4 PPM IN DRINKING WATER DAILY FOR 10 MO STARTING SIMULTANEOUSLY WITH CARCINOGEN TREATMENT (STUDY DURATION: 10 MO), Route [Inhibitor]: ORAL, Species: RAT, Strain/Sex: WE/MALE, Target Tissue: Type of Lesion: FORESTOMACH: NEOPLASM, Dose [Carcinogen]: 20 MG/KG BW ONCE EVERY 4 WK FOR 40 WK","14/15 (93%), 16/16 (100%), -8%, not significant"
same,"tumour outcome (control, treated, inhibition, significance)","Carcinogen: N-METHYL-N-NITROSOUREA, 684-9-35, Dose [Inhibitor]: 4 PPM IN DRINKING WATER DAILY FOR 10 MO STARTING SIMULTANEOUSLY WITH CARCINOGEN TREATMENT (STUDY DURATION: 10 MO), Route [Inhibitor]: ORAL, Species: RAT, Strain/Sex: WE/MALE, Target Tissue: Type of Lesion: MAMMARY GLAND: NEOPLASM, Dose [Carcinogen]: 20 MG/KG BW ONCE EVERY 4 WK FOR 40 WK","3/15 (20%), 4/16 (25%), -25%, not significant"
same,"tumour outcome (control, treated, inhibition, significance)","Carcinogen: N-METHYL-N-NITROSOUREA, 684-9-35, Dose [Inhibitor]: 4 PPM IN DRINKING WATER DAILY FOR 10 MO STARTING SIMULTANEOUSLY WITH CARCINOGEN TREATMENT (STUDY DURATION: 10 MO), Route [Inhibitor]: ORAL, Species: RAT, Strain/Sex: WE/MALE, Target Tissue: Type of Lesion: PERIPHERAL NERVES: NEOPLASM, Dose [Carcinogen]: 20 MG/KG BW ONCE EVERY 4 WK FOR 40 WK","3/15 (20%), 8/16 (50%), -150%, not significant"
same,"tumour outcome (control, treated, inhibition, significance)","Carcinogen: N-METHYL-N-NITROSOUREA, 684-93-5, Dose [Inhibitor]: 1 MG IN DIET DAILY STARTING AT AGE 5 WK 2 WK PRIOR TO FIRST CARCINOGEN TREATMENT AND CONTINUING FOR DURATION OF STUDY (S, Route [Inhibitor]: ORAL, Species: HAMSTER, Strain/Sex: SYRIAN/MALE, Target Tissue: Type of Lesion: TRACHEA: CARCINOMA, Dose [Carcinogen]: 0.5% SOLUTION (PH 5) 1/WK FOR 12 WK","9/34 (26%), 8/33 (24%), 8%, not significant"
same,"tumour outcome (control, treated, inhibition, significance)","Carcinogen: N-METHYL-N-NITROSOUREA, 684-93-5, Dose [Inhibitor]: 1 MG IN DIET DAILY STARTING AT AGE 5 WK 2 WK PRIOR TO FIRST CARCINOGEN TREATMENT AND CONTINUING FOR DURATION OF STUDY (S, Route [Inhibitor]: ORAL, Species: HAMSTER, Strain/Sex: SYRIAN/MALE, Target Tissue: Type of Lesion: TRACHEA: NEOPLASM, Dose [Carcinogen]: 0.5% SOLUTION (PH 5) 1/WK FOR 12 WK","11/34 (32%), 9/33 (27%), 16%, not significant"
same,"tumour outcome (control, treated, inhibition, significance)","Carcinogen: N-METHYL-N-NITROSOUREA, 684-93-5, Dose [Inhibitor]: 1 MG/KG IN DIET DAILY STARTING 7 D AFTER CARCINOGEN TREATMENT AND CONTINUING FORDURATION OF STUDY (STUDY DURATION: 120 D, Route [Inhibitor]: ORAL, Species: RAT, Strain/Sex: SPRAGUE-DAWLEY/FEMALE, Target Tissue: Type of Lesion: MAMMARY GLAND: ADENOCARCINOMA, Dose [Carcinogen]: 35 MG/KG BW IN 0.9% SALINE ONCE AT 50 D OF AGE","68%, 68%, 0%, not calculated"
same,"tumour outcome (control, treated, inhibition, significance)","Carcinogen: N-METHYL-N-NITROSOUREA, 684-93-5, Dose [Inhibitor]: 5 MG IN DIET DAILY STARTING AT AGE 5 WK 2 WK PRIOR TO FIRST CARCINOGEN TREATMENT AND CONTINUING FOR DURATION OF STUDY (S, Route [Inhibitor]: ORAL, Species: HAMSTER, Strain/Sex: SYRIAN/MALE, Target Tissue: Type of Lesion: TRACHEA: CARCINOMA, Dose [Carcinogen]: 0.5% SOLUTION (PH 5) 1/WK FOR 12 WK","9/34 (26%), 10/31 (32%), -23%, not significant"
